Results from patent US20250381306A1, “COMPOSITIONS AND METHODS FOR TREATING DIABETIC CARDIOMYOPATHY” (UNIVERSITY OF UTAH RESEARCH FOUNDATION, priority 2022, published 2025).

Test system: cardiomyocytes
Assay: Adult primary cardiomyocyte glucose uptake test
Assay type: cell-based, mouse
Conditions: db/db cardiomyocytes, 10 nM insulin, metformin (20 µM) positive control
Experimental: Adult mouse cardiomyocytes were isolated from both male and female mice with collagenase II (2 mg/mL, Worthington Biochemical Corporation). Freshly isolated cardiomyocytes were seeded in laminin-precoated culture dishes and cultured in perfusion buffer (120.4 mM NaCl, 14.7 mM KCl, 0.6 mM KH2PO4, 0.6 mM Na2HPO4, 1.2 mM MgSO4×7H2O, 10 mM Hepes, 4.6 mM NaHCO3, 30 mM taurine, and 5.5 mM glucose) for 1 hour in 37° C. and 5% CO2 incubator prior to further experiments.
For glucose uptake assays, freshly isolated CMCs were seeded and cultured in laminin-precoated 96-well plates for 1 hour prior to the test. Cells were then washed twice with glucose-free perfusion buffer (120.4 mM NaCl, 14.7 mM KCl, 0.6 mM KH2PO4, 0.6 mM Na2HPO4, 1.2 mM MgSO4: 7H2O, 10 mM HEPES) and starved in starvation buffer (glucose-free perfusion buffer containing 1 mM pyruvate, 0.1% BSA) for 40 min. Metformin (0, 20 μM) was loaded together with starvation buffer in the indicated groups. Cells were then stimulated in the absence or presence of insulin (0, 10 nM) (Sigma-Aldrich) for 20 min. Following the manufacturer's instructions, 2 DG-glucose uptake test in CMCs was then determined by Glucose Uptake Assay kit (Abcam) and quantified with a FlexStation 3 plate reader (Molecular Devices).

SMILES: CN(C)C(=N)N=C(N)N [metformin]
- insulin-stimulated uptake of 2-Deoxy-D-glucose: rescue
